# Experimental data taken from paper PMC7441537 (Journal of medicinal chemistry, 2019).
# How the values were obtained:
# [1] = system: NNRTI-resistant strain K103N+Y181C (RES056); conditions: MT-4 cells
# WT HIV-1 (IIIB) = conditions: MT-4 cells
SMILES,SI RES056 (CC50/EC50) [1],SI IIIB (CC50/EC50) (WT HIV-1 (IIIB))
"Cc1cc(C#N)cc(C)c1Oc1nc(NC2CCN(Cc3ccncc3)CC2)nc2c1SCC2 [13a4, 3,5-Dimethyl-4-((2-((1-(pyridin-4-ylmethyl)piperidin-4-yl)amino)-6,7-dihydrothieno[3,2-d]pyrimidin-4-yl)oxy)benzonitrile]",≥2305,≥40104
"Cc1cc(C#N)cc(C)c1Oc1nc(NC2CCN(Cc3cccc(C(N)=O)c3)CC2)nc2c1SCC2 [13a6, 3-((4-((4-(4-Cyano-2,6-dimethylphenoxy)-6,7-dihydrothieno[3,2-d]pyrimidin-2-yl)amino)piperidin-1-yl)methyl)benzamide]",≥355,≥8048
"Cc1cc(C#N)cc(C)c1Oc1nc(NC2CCN(Cc3ccc(N)cc3)CC2)nc2c1CSC2 [13b4, 4-((2-((1-(4-Aminobenzyl)piperidin-4-yl)amino)-5,7-dihydrothieno[3,4-d]pyrimidin-4-yl)oxy)-3,5-dimethylbenzonitrile]",>364,>30377
"Cc1cc(C#N)cc(C)c1Oc1nc(NC2CCN(Cc3ccc(NS(C)(=O)=O)cc3)CC2)nc2c1CSC2 [13b5, N-(4-((4-((4-(4-Cyano-2,6-dimethylphenoxy)-5,7-dihydrothieno[3,4-d]pyrimidin-2-yl)amino)piperidin-1-yl)methyl)phenyl)methanesulfonamide]",>42,>19670
"Cc1cc(C#N)cc(C)c1Oc1nc(NC2CCN(Cc3ccc([N+](=O)[O-])cc3)CC2)nc2c1COC2 [13c5, 3,5-Dimethyl-4-((2-((1-(4-nitrobenzyl)piperidin-4-yl)amino)-5,7-dihydrofuro[3,4-d]pyrimidin-4-yl)oxy)benzonitrile]",≥22,≥1497
"Cc1cc(C#N)cc(C)c1Oc1nc(NC2CCN(Cc3ccc(C(N)=O)cc3)CC2)nc2c1CCC2 [13d2, 4-((4-((4-(4-Cyano-2,6-dimethylphenoxy)-6,7-dihydro-5H-cyclopenta[d]pyrimidin-2-yl)amino)piperidin-1-yl)methyl)benzamide]",>1448,>40984
"Cc1cc(C#N)cc(C)c1Oc1nc(NC2CCN(Cc3ccncc3)CC2)nc2c1CCC2 [13d4, 3,5-Dimethyl-4-((2-((1-(pyridin-4-ylmethyl)piperidin-4-yl)amino)-6,7-dihydro-5H-cyclopenta[d]pyrimidin-4-yl)oxy)benzonitrile]",>5020,>147059
"Cc1cc(C#N)cc(C)c1Oc1nc(NC2CCN(Cc3ccc(S(N)(=O)=O)cc3)CC2)nc2c1CCCC2 [13e1, 4-((4-((4-(4-Cyano-2,6-dimethylphenoxy)-5,6,7,8-tetrahydroquinazolin-2-yl)amino)piperidin-1-yl)methyl)benzenesulfonamide]",>342,>37879
"Cc1cc(C#N)cc(C)c1Oc1nc(NC2CCN(Cc3ccc(C(N)=O)cc3)CC2)nc2c1CCCC2 [13e2, 4-((4-((4-(4-Cyano-2,6-dimethylphenoxy)-5,6,7,8-tetrahydroquinazolin-2-yl)amino)piperidin-1-yl)methyl)benzamide]",>799,>38709
"Cc1cc(C#N)cc(C)c1Oc1nc(NC2CCN(Cc3ccc(S(C)(=O)=O)cc3)CC2)nc2c1CCCC2 [13e3, 3,5-Dimethyl-4-((2-((1-(4-(methylsulfonyl)benzyl)piperidin-4-yl)amino)-5,6,7,8-tetrahydroquinazolin-4-yl)oxy)benzonitrile]",>4032,>33333
"Cc1cc(C#N)cc(C)c1Oc1nc(NC2CCN(Cc3ccc(C(N)=O)cc3)CC2)nc2c1SCCC2 [13f2, 4-((4-((4-(4-Cyano-2,6-dimethylphenoxy)-7,8-dihydro-6H-thiopyrano[3,2-d]pyrimidin-2-yl)amino)piperidin-1-yl)methyl)benzamide]",>476,>14767
